Measurements from article PMC10949195, “Exponential Combination of a and e/g Intracellular Peptide Libraries Identifies a Selective ATF3 Inhibitor” (ACS Chemical Biology, 2024).

How the values were obtained:
[1] = Size-exclusion chromatography of peptide alone; type: physicochemical; conditions: Superdex Peptide 10/300 GL, RT; 20 μM total peptide
Experimental: During SEC experiments, monomeric ATF3 (Figure 8, blue line) and ATF3W_aeg (Figure 8, green line) eluted at approximately 20 min. These contrast with the dimeric profile observed for ATF3-ATF3W_aeg (Figure 8, black line), which occurred at approximately 19 min. For all samples, elution profiles were consistent with either a validated monomer or dimer elution pattern.[15]
Figure 8 SEC profiles indicate that ATF3W_aeg binds ATF3. Shown are size exclusion chromatography profiles for interacting peptides. The peak at approx 19 min for the ATF3-ATF3W_aeg mixture (black trace) represents a dimeric sample while ATF3 (blue trace) and ATF3W_aeg (green trace) generate a peak at approx 20 min, indicating the presence of a monomer. These experiments, undertaken at a total peptide concentration of 20 μM, provide additional evidence for selectivity of the ATF3-ATF3W_aeg interaction. Arrows show controls from previous peptides with elution times for a 32 mer Fos monomeric peptide (20 min) and a 37 mer cJun–FosW heterodimer (18.5 min).[15]
Size-exclusion experiments were performed at RT using a Superdex Peptide 10/300 GL column (GE Healthcare Life Sciences) as described previously.[23]

[2] = Serum stability; type: in vitro ADME; conditions: human serum (Merck), 75 uL of 600 uM stock in 1425 uL serum, 37 °C, 3-day time course; LC-MS; averages of three experimental repeats
Experimental: TableS1: Shown are peptide permeability assay on ATF3W-aeg. […]
peptide holding on the membrane.
Peptide permeability assay: To evaluate the peptide permeability, the BD™ pre-coated PAMPA plate system was employed. The 300uL of 200uM peptide in PBS buffer were added in the well of the receiver plate, and slowly placed the filter plate with the 200uL PBS buffer per well on the receiver plate. The peptide concentrations in both plates were determined by UV spectroscopy after the assembly plate system were incubated at room temperature for 5 hours, and the peptide permeability and mass retention were calculated by using the PAMPA plate system formula which recommended in the manufacture manual.
Permeability (in unit of cm/s):
Mass retention: 1 - [CD(t)*VD + CA(t)*VA ]/( C0 * VD)
C0 = initial compound concentration in donor well (mM)
CD(t) = compound concentration in donor well at time t (mM)
CA(t) = compound concentration in acceptor well at time t (mM)
VD = donor well volume = 0.3 mL
VA = acceptor well volume = 0.2 mL […]
(§1) Serum stability: The quantity of peptide detected by LC-MS is plotted relative to the starting point […]
(§2) Fig S5: Shown are serum stability of ATF3W-aeg. The quantity of peptide detected by LC-MS is plotted […]
The supernatant was analysed by LC-MS, and the peptide was quantified as the sum of the peaks with the two largest intensities1.

[3] = biological target: T1, ATF3 (Homo sapiens, UniProt P18847); experiment: CD spectra of ATF3-ATF3W_aeg complex; type: binding; conditions: 1:1 stoichiometry with ATF3, 150 μM total peptide, pH 7.0
T1 construct: We focus on the selective targeting of the ATF3 leucine zipper dimerization domain using intracellular peptide library screening; made in house; host or cells: chemical solid-phase peptide synthesis (no expression host)
T1 sequence (P18847 110-143): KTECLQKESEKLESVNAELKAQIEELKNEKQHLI
Experimental: ATF3, ATF3W_a, and ATF3W_eg and combined hit sequence ATF3W_aeg were synthesized using solid phase peptide synthesis, purified by RP-HPLC, and verified for correct mass using ESI-MS (Figure S3), after which circular dichroism (CD) was used to characterize both ATF3 and antagonist peptides for helicity and interactions as homodimers, as well as heterodimers with the ATF3 target. Global secondary analysis of both homodimeric and heterodimeric systems was carried out at a total peptide concentration of 150 μM to keep equimolar concentrations of each component helix. The 222/208 ratio was used to provide evidence on whether the helices were likely to be monomeric or adopt quaternary structure.[13] […] Furthermore, incubation of ATF3 with ATF3W_aeg elicited a significant conformational change in the sample relative to the average of the component peptides (Figure 6d black line vs red hash), providing compelling evidence for an interaction.[14] In addition, the component PCA hits were examined using CD.
Figure 6 CD spectra data indicates a ATF3-ATF3W_aeg interaction. […] Spectra were next measured at 20 and 5 °C and again post-thermal denaturation (PM 20 °C to establish reversible that unfolding is fully reversible) at a total peptide concentration of 150 μM and presented as mean residue ellipticity (MRE). […]

[4] = Peptide permeability assay (PAMPA); type: in vitro ADME
Description: Fig S4: CD data for ATF3 interacting with ATF3W-a and ATF3W-eg.
Peptide permeability assay: The PAMPA assay measures permeability across an artificial membrane. This method provides an in vitro model for passive diffusion. Passive diffusion is an important factor in determining transport through the gastrointestinal tract, penetration of the blood brain barrier, as well as transport across cell membranes. Permeability can also be influenced by several other mechanisms including paracellular transport and active uptake or efflux which are not assessed in PAMPA. Therefore, PAMPA provides a simplistic approach to permeability by only measuring a single mechanism. […]
Peptide permeability assay: To evaluate the peptide permeability, the BD™ pre-coated PAMPA plate system was employed. […] The peptide concentrations in both plates were determined by UV spectroscopy after the assembly plate system were incubated at room temperature for 5 hours, and the peptide permeability and mass retention were calculated by using the PAMPA plate system formula which recommended in the manufacture manual. […]
as §1, §2

Question: With “Ac-ELAALEQKAYALKQENAALEKEVAALEQKIAALK-NH2 (N-terminus and C-terminus assumed) [ATF3W_aeg]” as the substance, how does the “SEC elution time, peptide alone” value [1] read?
Answer: approximately 20 min

Question: And the “oligomeric state in solution by SEC, peptide alone” value [1]?
Answer: exclusively as a monomer

Question: And the “serum stability, peptide quantity relative to starting point” value [2]?
Answer: completely degraded

Question: And the “222/208 ratio of ATF3-ATF3W_aeg complex” value [3]?
Answer: 0.94

Question: What about the “fractional helicity (fH) of ATF3-ATF3W_aeg complex” value [3] of the same substance?
Answer: ~68%

Question: What about the PAMPA mass retention ([4]; BD pre-coated PAMPA plate system, 200uM peptide in PBS, room temperature, 5 hours, UV spectroscopy) of the same substance?
Answer: 5.8%

Question: What about the PAMPA permeability category ([4]; category by Log(Permeability) larger than -6, industry standard in BD PAMPA manual) of the same substance?
Answer: high permeability
